Assay results published in US20020002171A1, “Materials and methods for killing nematodes and nematode eggs” (priority 2000, published 2002).

System: Caenorhabditis elegans
Assay: C. elegans L1 nematicidal dose response in 96-well plates, 5 day visual score (Example 2; same procedure for Example 7, Table 3)
Format: in vivo
Set-up: key to 5 Day Visual Score V1 / 5 Day Visual Score V2 / 5 Day Visual Score V3 / 5 Day Visual Score V4 / 5 Day Visual Score V6 / 5 Day Visual Score V5 / Initial HTS Run Visual Score / Follow-up HTS Run Visual Score: Dead: only stiff L1s (no movement); Dead (L4): worms are dead, but at a later larval stage; majority of worms are L1 (based on size) worms move when plate is tapped; majority of worms are L2 (based on size); majority of worms are L3 (based on size); majority of worms are L4 (based on size); AD: majority of worms are adult; #AD: 5 adult worms or less; B!: sterile (0-25 progeny); B: low broodsize (25-100 progeny); ˜B: moderate broodsize (100-250 progeny); <: reduced broodsize (250-500 progeny); OK: no effect (˜1000+ progeny)
Settings: for 5 Day Visual Score V1 / 5 Day Visual Score V2 / 5 Day Visual Score V3 / 5 Day Visual Score V4 / 5 Day Visual Score V5 / 5 Day Visual Score V6: dose response; for 5 Day Visual Score V1: dilution V1, day 5; for 5 Day Visual Score V2: dilution V2, day 5; for 5 Day Visual Score V3: dilution V3, day 5; for 5 Day Visual Score V4: dilution V4, day 5; for 5 Day Visual Score V5: dilution V5, day 5; for 5 Day Visual Score V6: dilution V6, day 5
Procedure: Caenorhabditis elegans adults were grown on Nematode Growth Medium (NGM) until they produced eggs, then the adults were removed.
The eggs were allowed to hatch, and the L1 larvae collected. See The Nematode Caenorhabditis elegans (1988) Cold Spring Harbor Laboratory Press. Using a Matrix Programmable Pipette, the L1s were distributed into 96-well tissue culture plates, 20 L1 in 50 μl NGM per well. Antibiotic/Antimyoticwas added to each well, and 1% by weight E. coli strain HB101. The subject anthelmintic compounds were stored at 5 mM in 100% DMSO. 0.7 μl of compounds 1-31 were added to the left-most column of wells to yield a final concentration of 70 μM in 1.4% DMSO, with 1.4% DMSO only as the control. The compounds were then subjected to 5 more 3-fold dilutions from left to right to yield 6 column concentrations of 70 μM, 23.3 μM, 7.8 μM, 2.6 μM, 0.9 μM, and 0.3 μM. Plates were stored in air-tight Rubbermaid plastic boxes at 20° C. The nematodes had cleared all control wells by day 4, and nematode viability was scored by visual examination under a 100× dissecting microsope on day 5. A visual viability scoring system was used as follows:
Column V1 has a compound concentration of 70 μM with sequential 3-fold dilutions reported in columns V2, V3, V4, V5, and V6, respectively, such that the V6 concentration was 0.3 μM.
The nematicidal activity of anthelmintic Compositions 48-168 were determined in accordance with the procedure outlined in Example 2.

| SMILES | Follow-up HTS Run % Run [%] | Follow-up HTS Run Visual Score | Follow-up HTS Run mOD [mOD] | Initial HTS Run % Run [%] | Initial HTS Run Visual Score | Initial HTS Run mOD [mOD] | 5 Day Visual Score V1 | 5 Day Visual Score V2 | 5 Day Visual Score V3 | 5 Day Visual Score V4 | 5 Day Visual Score V5 | 5 Day Visual Score V6 |
| --- | --- | --- | --- | --- | --- | --- | --- | --- | --- | --- | --- | --- |
| Cc1cccc(C)c1N1CCN(c2nsc(N(CC(C)C)CC(C)C)n2)CC1 [compound 231] | 65 | 2AD/B | 105 | 119 | 2AD/B | 131 | Dead | Dead | < (reduced broodsize (250-500 progeny)) | OK (no effect (˜1000+ progeny)) | OK (no effect (˜1000+ progeny)) | OK (no effect (˜1000+ progeny)) |
| C=CCN(CC=C)c1nc(N2CCN(c3c(C)cccc3C)CC2)ns1 [compound 232] | 68 | Dead/1AD/B | 109 | 120 | 2AD/B | 132 | Dead | – | OK (no effect (˜1000+ progeny)) | OK (no effect (˜1000+ progeny)) | OK (no effect (˜1000+ progeny)) | OK (no effect (˜1000+ progeny)) |
| CCOC(=O)CCN(Cc1ccccc1)c1nc(N2CCN(c3c(C)cccc3C)CC2)ns1 [compound 233] | 93 | Dead | 150 | 113 | 1AD/B | 124 | Dead | – | ˜B (moderate broodsize (100-250 progeny)) | OK (no effect (˜1000+ progeny)) | OK (no effect (˜1000+ progeny)) | OK (no effect (˜1000+ progeny)) |
| Cc1cccc(C)c1N1CCN(c2nsc(N(C)CCc3ccccc3)n2)CC1 [compound 234] | 63 | 2AD/B | 102 | 120 | 3AD/B | 132 | Dead | – | ˜B (moderate broodsize (100-250 progeny)) | < (reduced broodsize (250-500 progeny)) | OK (no effect (˜1000+ progeny)) | OK (no effect (˜1000+ progeny)) |
| CCCCN(CC)c1nc(N2CCN(c3ncccn3)CC2)ns1 [compound 235] | 127 | L2 - 1/2 Dead | 205 | 128 | Dead (L3?) | 141 | Dead | #AD/˜B | OK (no effect (˜1000+ progeny)) | OK (no effect (˜1000+ progeny)) | OK (no effect (˜1000+ progeny)) | OK (no effect (˜1000+ progeny)) |
| CCCCN(CC)c1nc(N2CCN(c3ccc(F)cc3)CC2)ns1 [compound 236] | 123 | Dead | 198 | 136 | 1AD/B | 150 | Dead | – | – | < (reduced broodsize (250-500 progeny)) | < (reduced broodsize (250-500 progeny)) | OK (no effect (˜1000+ progeny)) |
| CCN(Cc1ccccc1)c1nc(N2CCN(c3ccc(F)cc3)CC2)ns1 [compound 237] | 117 | – | 189 | 133 | – | 146 | L1 | L1 | L1 | < (reduced broodsize (250-500 progeny)) | OK (no effect (˜1000+ progeny)) | OK (no effect (˜1000+ progeny)) |
| CCOC(=O)CCN(Cc1ccccc1)c1nc(N2CCN(c3ccc(F)cc3)CC2)ns1 [compound 238] | 122 | L4/AD/B | 197 | 135 | L4/Ad/B! | 148 | L1 | – | < (reduced broodsize (250-500 progeny)) | < (reduced broodsize (250-500 progeny)) | OK (no effect (˜1000+ progeny)) | OK (no effect (˜1000+ progeny)) |
| CCCCN(Cc1ccccc1)c1nc(N2CCCC(C(=O)N(CC)CC)C2)ns1 (stereo not drawn) [compound 239] | 132 | B (low broodsize (25-100 progeny)) | 212 | 134 | L4/AD/B! | 147 | L2 | B (low broodsize (25-100 progeny)) | OK (no effect (˜1000+ progeny)) | OK (no effect (˜1000+ progeny)) | OK (no effect (˜1000+ progeny)) | OK (no effect (˜1000+ progeny)) |
| Fc1ccc(CCNc2nsc(N3CCN(c4ccc(F)cc4)CC3)n2)cc1 [compound 240] | 86 | Dead | 138 | 101 | – | 111 | Dead | L1 | – | ˜B (moderate broodsize (100-250 progeny)) | < (reduced broodsize (250-500 progeny)) | OK (no effect (˜1000+ progeny)) |
| CCN(Cc1ccccc1)c1nc(NCCc2ccc(F)cc2)ns1 [compound 241] | 88 | B (low broodsize (25-100 progeny)) | 141 | 114 | – | 125 | – | ˜B (moderate broodsize (100-250 progeny)) | OK (no effect (˜1000+ progeny)) | OK (no effect (˜1000+ progeny)) | OK (no effect (˜1000+ progeny)) | OK (no effect (˜1000+ progeny)) |
| CCOC(=O)CCN(Cc1ccccc1)c1nc(NCCc2ccc(F)cc2)ns1 [compound 242] | 87 | – | 140 | 106 | Dead (L3?) | 117 | – | B (low broodsize (25-100 progeny)) | OK (no effect (˜1000+ progeny)) | OK (no effect (˜1000+ progeny)) | OK (no effect (˜1000+ progeny)) | OK (no effect (˜1000+ progeny)) |
| CN(CCc1ccccc1)c1nc(NCCc2ccc(F)cc2)ns1 [compound 243] | 86 | B (low broodsize (25-100 progeny)) | 139 | 115 | L4/AD/B! | 127 | – | B (low broodsize (25-100 progeny)) | OK (no effect (˜1000+ progeny)) | OK (no effect (˜1000+ progeny)) | OK (no effect (˜1000+ progeny)) | OK (no effect (˜1000+ progeny)) |
| CC1(C)CC(O)CC(C)(CNc2nsc(N3CCN(c4ccc(F)cc4)CC3)n2)C1 (stereo not drawn) [compound 244] | 104 | Dead | 167 | 125 | Dead | 138 | Dead | Dead | < (reduced broodsize (250-500 progeny)) | OK (no effect (˜1000+ progeny)) | OK (no effect (˜1000+ progeny)) | OK (no effect (˜1000+ progeny)) |
